Data on 29 molecules can be found in US9951057B2, “COMT inhibiting methods and compositions” (Lieber Institute for Brain Development, priority 2015, dated 2018).

For the first data set, the target named is T1, catechol-O-methyltransferase (COMT) (Homo sapiens, UniProt P21964).
T1 construct: M51A variant) was expressed in HEK 293F cells
T1 sequence (P21964 52-271 limits assumed): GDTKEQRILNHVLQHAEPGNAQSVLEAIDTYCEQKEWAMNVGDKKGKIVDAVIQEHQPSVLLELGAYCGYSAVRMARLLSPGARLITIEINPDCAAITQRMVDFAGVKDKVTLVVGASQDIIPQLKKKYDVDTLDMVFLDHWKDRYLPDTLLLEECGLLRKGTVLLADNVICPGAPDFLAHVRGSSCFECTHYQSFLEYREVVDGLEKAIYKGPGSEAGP
The experiment in a line: COMT inhibition assay (HTRF, production of SAH from SAM). Format: biochemical. As to conditions: recombinant human COMT, table does not say whether MB-COMT or S-COMT. How it is done: The ability of compounds to inhibit the activity of catechol-O-methyltransferase (COMT) was determined by a homogenous time-resolved fluorescent (HTRF) assay (Lina et al, 2012; kit from CisBio, Codolet, France). This assay measures the production of S-adenosyl homocysteine (SAH) from the methyl donor S-adenosyl methionine. Recombinant human membrane bound COMT (MB-COMT; M51A variant) was expressed in HEK 293F cells using 293Fectin (Life Technologies, Gent, Belgium) and membranes prepared. The membranes were re-suspended in buffer (20 mM Tris/HCl pH 7; 10 mM glycerol; 2 mM MgCl2; 10 mM NaCl), aliquoted and stored at −80° C. Recombinant human soluble COMT (S-COMT), Val158 variant and a hexa-His tag on the N-terminus, was purified using Ni-NTA chromatography, the His tag removed and stored in buffer as above.
For the human MB-COMT assay, membranes (62 ng/well) were incubated with SAM (20 μM final, CisBio) and dopamine (1.5 μM final; Sigma H8502, Diegem, Belgium) in the presence or absence of varying concentrations (typically 10 concentrations ranging from 10 μM to 0.1 nM) of compound for 40 min at 37° C. in 384-well microtitre plates (10 μl per well final volume). The reaction was terminated by the addition of acylation buffer and the amount of SAH produced determined according to manufacturer's instructions. Specific inhibition as that inhibited by a high concentration of tolcapone (10 μM; synthesised at UCB) and all experiments were validated using a control curve to tolcapone.
The human S-COMT assay was performed as above except that 0.15 ng enzyme/well was incubated with SAM (20 μM final) and dopamine (100 μM final) for 15 min at 37° C. and SAH production determined.
HTRF readings were performed using a Perkin Elmer Envision and results expressed as concentration of SAH produced using a standard curve. Results were analysed using non-linear regression to the 4-parameter logistic equation and pIC50 (−log 10 concentration of drug which inhibits enzyme activity/SAH production by 50%) determined.
Background: TR-FRET usually uses a lanthanide donor and a delayed reading to cut background.
For `CCCCCCCCS(=O)(=O)c1ccc(O)c2ncccc12` [Example 2, 5-octylsulfonylquinolin-8-ol], the “Activity range (pIC50)” value is given as “+++ (three plus signs (+++) is associated with a pIC50 of above about 7)”.

Take `O=S(=O)(c1cc(Cl)c(O)c2ncccc12)C1CCCCC1` [Example 13, 7-chloro-5-cyclohexylsulfonyl-quinolin-8-ol]: the “Activity range (pIC50)” value is “+++ (three plus signs (+++) is associated with a pIC50 of above about 7)”. With `O=S(=O)(c1ccc(C(F)(F)F)cc1)c1cc(F)c(O)c2ncccc12` [Example 15, 7-fluoro-5-[4-(trifluoromethyl)phenyl]sulfonyl-quinolin-8-ol], the “Activity range (pIC50)” value was “++ (two plus signs (++) is associated with a pIC50 of from about great than 6 to 7)”. `O=S(=O)(c1ccc(C(F)(F)F)cc1)c1cc(Cl)c(O)c2ncccc12` [Example 18, 7-chloro-5-[4-(trifluoromethyl)phenyl]sulfonyl-quinolin-8-ol]: the “Activity range (pIC50)” value was “++ (two plus signs (++) is associated with a pIC50 of from about great than 6 to 7)”. Turning to `O=S(=O)(c1ccc(F)cc1)c1cc(F)c(O)c2ncccc12` [Example 14, 7-fluoro-5-(4-fluorophenyl)sulfonyl-quinolin-8-ol], the “Activity range (pIC50)” value is on record as “++ (two plus signs (++) is associated with a pIC50 of from about great than 6 to 7)”.

Take `O=S(=O)(c1nccs1)c1cc(Cl)c(O)c2ncccc12` [Example 22, 7-chloro-5-thiazol-2-ylsulfonyl-quinolin-8-ol]: the “Activity range (pIC50)” value is “++ (two plus signs (++) is associated with a pIC50 of from about great than 6 to 7)”. Consider `O=S(=O)(c1cc(Cl)c(O)c2ncccc12)C1CCCC1` [Example 8, 7-chloro-5-cyclopentylsulfonyl-quinolin-8-ol], for which the “Activity range (pIC50)” value was “++ (two plus signs (++) is associated with a pIC50 of from about great than 6 to 7)”. The same measure, in the same setting: in the case of `O=S(=O)(c1ccccn1)c1cc(F)c(O)c2ncccc12` [Example 16, 7-fluoro-5-(2-pyridylsulfonyl)quinolin-8-ol] it was “++ (two plus signs (++) is associated with a pIC50 of from about great than 6 to 7)”; in that of `O=S(=O)(c1cc(Cl)c(O)c2ncccc12)N1CCCC1` [Example 7, 7-chloro-5-pyrrolidin-1-ylsulfonyl-quinolin-8-ol], “++ (two plus signs (++) is associated with a pIC50 of from about great than 6 to 7)”. Turning to `CC(C)(C)c1ccc(S(=O)(=O)c2cc(Cl)c(O)c3ncccc23)cc1` [Example 26, 5-(4-tert-butylphenyl)sulfonyl-7-chloro-quinolin-8-ol], the “Activity range (pIC50)” value is “+ (a single plus (+) is associated with a pIC50 of from about 4.5 to 6)”. For `Cc1ccc(S(=O)(=O)c2cc(Cl)c(O)c3ncccc23)cc1C` [Example 17, 7-chloro-5-(3,4-dimethylphenyl)sulfonyl-quinolin-8-ol], the “Activity range (pIC50)” value is reported as “++ (two plus signs (++) is associated with a pIC50 of from about great than 6 to 7)”. The same measure, in the same setting: the result for `O=S(=O)(c1ccc[n+]([O-])c1)c1cc(Cl)c(O)c2ncccc12` [Example 28, 7-chloro-5-(1-oxidopyridin-1-ium-3-yl)sulfonyl-quinolin-8-ol] reads “+ (a single plus (+) is associated with a pIC50 of from about 4.5 to 6)”; that for `O=S(=O)(c1ccc(F)cc1)c1cc(Cl)c(O)c2ncccc12` [Example 9, 7-chloro-5-(4-fluorophenyl)sulfonyl-quinolin-8-ol], “++ (two plus signs (++) is associated with a pIC50 of from about great than 6 to 7)”. For `C[C@H]1CCCN1S(=O)(=O)c1ccc(O)c2ncccc12` [Example 6], the “Activity range (pIC50)” value is on record as “+++ (three plus signs (+++) is associated with a pIC50 of above about 7)”.

On to `O=S(=O)(c1ccc(Cl)c(Cl)c1)c1cc(Cl)c(O)c2ncccc12` [Example 24, 7-chloro-5-(3,4-dichlorophenyl)sulfonyl-quinolin-8-ol], for which the “Activity range (pIC50)” value is given as “++ (two plus signs (++) is associated with a pIC50 of from about great than 6 to 7)”. On to `O=S(=O)(c1cccc(-c2ccccc2)c1)c1cc(Cl)c(O)c2ncccc12` [Example 25, 7-chloro-5-(3-phenylphenyl)sulfonyl-quinolin-8-ol], for which the “Activity range (pIC50)” value is “++ (two plus signs (++) is associated with a pIC50 of from about great than 6 to 7)”. On to `O=S(=O)(c1cccnc1)c1cc(Cl)c(O)c2ncccc12` [Example 27, 7-chloro-5-(3-pyridylsulfonyl)quinolin-8-ol], for which the “Activity range (pIC50)” value is “+ (a single plus (+) is associated with a pIC50 of from about 4.5 to 6)”. In the case of `C[C@@H]1CCCN1S(=O)(=O)c1ccc(O)c2ncccc12` [Example 5, 5-[(2R)-2-methylpyrrolidin-1-yl]sulfonylquinolin-8-ol], the “Activity range (pIC50)” value was “+++ (three plus signs (+++) is associated with a pIC50 of above about 7)”. Same read-out and setting: in the case of `CC(C)CS(=O)(=O)c1ccc(O)c2ncccc12` [Example 1, 5-isobutylsulfonylquinolin-8-ol] it was “+++ (three plus signs (+++) is associated with a pIC50 of above about 7)”; in that of `CC(C)S(=O)(=O)c1cc(Cl)c(O)c2ncccc12` [Example 12, 7-chloro-5-isopropylsulfonyl-quinolin-8-ol], “++ (two plus signs (++) is associated with a pIC50 of from about great than 6 to 7)”; in that of `Cc1cccc(S(=O)(=O)c2cc(Cl)c(O)c3ncccc23)c1` [Example 23, 7-chloro-5-(m-tolylsulfonyl)quinolin-8-ol], “++ (two plus signs (++) is associated with a pIC50 of from about great than 6 to 7)”. On to `O=S(=O)(c1cc(Cl)cc(Cl)c1)c1cc(Cl)c(O)c2ncccc12` [Example 21, 7-chloro-5-(3,5-dichlorophenyl)sulfonyl-quinolin-8-ol], for which the “Activity range (pIC50)” value is listed as “+ (a single plus (+) is associated with a pIC50 of from about 4.5 to 6)”. On the same count and under the same terms, in the case of `O=S(=O)(c1ccccn1)c1cc(Cl)c(O)c2ncccc12` [Example 19, 7-chloro-5-(2-pyridylsulfonyl)quinolin-8-ol] it was “++ (two plus signs (++) is associated with a pIC50 of from about great than 6 to 7)”; in that of `O=S(=O)(c1ccc(O)c2ncccc12)C1CCOCC1` [Example 3, 5-tetrahydropyran-4-ylsulfonyquinolin-8-ol], “++ (two plus signs (++) is associated with a pIC50 of from about great than 6 to 7)”; in that of `CC(C)CS(=O)(=O)c1cc(Cl)c(O)c2ncccc12` [Example 11, 7-chloro-5-isobutylsulfonyl-quinolin-8-ol], “+ (a single plus (+) is associated with a pIC50 of from about 4.5 to 6)”. Consider `Cc1ccc(S(=O)(=O)c2cc(Cl)c(O)c3ncccc23)c(C)c1` [Example 20, 7-chloro-5-(2,4-dimethylphenyl)sulfonyl-quinolin-8-ol], for which the “Activity range (pIC50)” value is recorded as “+++ (three plus signs (+++) is associated with a pIC50 of above about 7)”. For the molecule `O=S(=O)(c1cc(F)c(O)c2ncccc12)C1CCCC1` [Example 10, 7-fluoro-5-cyclopentylsulfonyl-quinolin-8-ol], the “Activity range (pIC50)” value was “+++ (three plus signs (+++) is associated with a pIC50 of above about 7)”.

Tested on in a further data set: not given
Assay: not given
As to conditions: Nutt and Fellman 1984; cited from earlier work.
Take `N[C@@H](Cc1ccc(O)c(O)c1)C(=O)O` [L-DOPA, L-dihydroxyphenylalanine]: the “percentage of exogenously administered L-DOPA that reaches the brain” value is reported as ~1%.

Tested on in a further data set: not given
Assay: not given
Conditions: Russ, et al. 1999; cited from earlier work.
Turning to `CCN(CC)C(=O)/C(C#N)=C/c1cc(O)c(O)c([N+](=O)[O-])c1` [entacapone], the “brain penetration / levels in the brain” value was “negligible brain penetration”.
